# In ChEMBL document CHEMBL1159335, “Structures of new cyclic diarylheptanoids and inhibitors of nitric oxide production from Japanese folk medicine Acer nikoense” (J Nat Prod, 2003):
# Legend:
# Macrophage [1] = experiment: Inhibition of LPS-induced NO production in ddY mouse peritoneal macrophages at 100 uM by Griess reagent method; format: functional
# Macrophage [2] = experiment: Inhibition of LPS-induced NO production in ddY mouse peritoneal macrophages at 3 uM by Griess reagent method; format: functional
# Macrophage [3] = experiment: Inhibition of LPS-induced NO production in ddY mouse peritoneal macrophages at 10 uM by Griess reagent method; format: functional
# Macrophage [4] = experiment: Inhibition of LPS-induced NO production in ddY mouse peritoneal macrophages by Griess reagent method; format: functional, cell-based
# Macrophage [5] = experiment: Inhibition of LPS-induced NO production in ddY mouse peritoneal macrophages at 1 uM by Griess reagent method; format: functional
# [6] = Cytotoxicity against ddY mouse macrophages after 20 hrs by MTT assay; format: cell-based; settings: macrophage
# Macrophage [7] = experiment: Inhibition of LPS-induced NO production in ddY mouse peritoneal macrophages at 30 uM by Griess reagent method; format: functional
SMILES,inhibition at 100 µM (Macrophage [1]) [%],inhibition at 3 µM (Macrophage [2]) [%],inhibition at 10 µM (Macrophage [3]) [%],IC50 (Macrophage [4]) [µM],inhibition at 1 µM (Macrophage [5]) [%],Activity [6],inhibition at 30 µM (Macrophage [7]) [%]
Oc1ccc2cc1Oc1ccc(cc1)CCCC[C@H](O)CC2 [ACEROGENIN B],54.1,-0.5,-0.2,88,1.9,Non-toxic,17.6
Oc1ccc2cc1-c1cc(ccc1O)CCC(O)CCCC2 (stereo not given) [ACEROGENIN K],91.3,2.1,24.3,25,6.6,Non-toxic,56.6
O=C1CCCCc2ccc(O)c(c2)-c2cc(ccc2O)CC1 [ACEROGENIN E],81.2,3.3,13.6,24,0.1,Non-toxic,59.4
Oc1ccc(CCCC[C@@H](O)CCc2ccc(O)cc2)cc1,67.2,1.3,-1.1,73,-1.3,Non-toxic,10.7
Oc1ccc2cc1Oc1ccc(cc1)CC[C@H](O)CCCC2 [ACEROGENIN A],61.4,5.8,11.6,74,6.7,Non-toxic,22.2
